Assay type in all cases: physicochemical
A short description of series [1]: Solid state stability study of bulk crystals (HPLC analysis, PXRD). The note with it: for Purity (Area %) / Total Impurities (Area %): HPLC. The source says:
As referred to in the present application, “stable” in bulk drug stability tests means that at least about 97% by weight, preferably at least about 98% by weight, and more preferably at least about 99% by weight of the bulk drug remains unchanged after storage under the indicated conditions for the indicated time.
A solid state stability study of Crystal Form I of the L-malic acid salt of N-[2-(diethylamino)ethyl]-5-[(5-fluoro-1,2-dihydro-2-oxo-3H-indol-3-ylidene)methyl]-2,4-dimethyl-1H-pyrrole-3-carboxamide was also conducted (Table 2).

The nature of series [2]: Solubility in water. Particulars: in water at 25° C. On the procedure: The solubility of Crystal Form I of the L-malic acid salt of N-[2-(diethylamino)ethyl]-5-[(5-fluoro-1,2-dihydro-2-oxo-3H-indol-3-ylidene)methyl]-2,4-dimethyl-1H-pyrrole-3-carboxamide was determined to be 5 mg/mL in water at 25° C.
A short description of series [3]: Dynamic moisture sorption gravimetry (DMSG), hygroscopicity. Particulars: for Water absorbed (moisture sorption): across the 0-90% relative humidity range, 25° C. On the procedure: X-ray diffraction (XRD) patterns were measured on a Scintag X2 diffractometer (Thermo ARL, Ecublens, Switzerland) equipped with a theta-theta goniometer. Melting points were determined using a TA Instruments 2920 differential scanning calorimeter (TA Instruments, New Castle, Del.) with standard crimped pans and a heating rate of 10° C./minute. Hygroscopicity was assessed by dynamic moisture sorption gravimetry (DMSG) using a Controlled Atmosphere Microbalance (Pharmacia Corp., Kalamazoo, Mich.). All chemicals used are available from Aldrich Chemical Co., Milwaukee, Wis., unless otherwise specified. N-[2-(diethylamino)ethyl]-5-[(5-fluoro-1,2-dihydro-2-oxo-3H-indol-3-ylidene)methyl]-2,4-dimethyl-1H-pyrrole-3-carboxamide was prepared as the free base by a procedure similar to that described in Example 80 of PCT International Publication No. WO 01/60814 (Tang et al.).
Dynamic Moisture Sorption Gravimetry (DMSG). DMSG isotherms were collected on the variable temperature controlled atmosphere microbalance. Approximately 10 mg samples were used in the balance. Samples were run as received. The humidity was sequentially set between 0 and 90% relative humidity (RH) in 3% RH steps. The mass was then measured every two minutes. The RH was changed to the next value when the mass of the sample was stable to within 0.5 microgram in 480 seconds. A Visual Basic program was used to control the data collection and export the information to an Excel spreadsheet.

Structures can show the parent of a compound that is named as a salt.

Usually solubility stands for the dissolved amount per volume that the medium holds.

For `CCN(CC)CCNC(=O)c1c(C)[nH]c(/C=C2\C(=O)Nc3ccc(F)cc32)c1C` [Crystal Form I, L-malic acid salt of N-[2-(diethylamino)ethyl]-5-[(5-fluoro-1,2-dihydro-2-oxo-3H-indol-3-ylidene)methyl]-2,4-dimethyl-1H-pyrrole-3-carboxamide], the “Purity (Area %)” value is reported as 99.6 Area % in series [1] (2 weeks at 60° C./75% RH); 98.2 Area % in series [1] (2 weeks at 60° C./ambient RH); 99.5 Area % in series [1] (2 weeks at 80° C./ambient RH); 100.1 Area % in series [1] (4 weeks at 60° C./75% RH); 100.4 Area % in series [1] (4 weeks at 60° C./ambient RH); 98.0 Area % in series [1] (4 weeks at 80° C./ambient RH). Further, in series [1] (Initial), the “Purity (Area %)” value worked out at 99.7 Area %. In addition, the “Total Impurities (Area %)” value turned out to be 1.2 Area % in series [1] (2 weeks at 60° C./75% RH); 1.1 Area % in series [1] (2 weeks at 60° C./ambient RH); 1.2 Area % in series [1] (2 weeks at 80° C./ambient RH); 2.2 Area % in series [1] (4 weeks at 60° C./75% RH); 1.2 Area % in series [1] (4 weeks at 60° C./ambient RH); 3.1 Area % in series [1] (4 weeks at 80° C./ambient RH). In series [1] (Initial), the “Total Impurities (Area %)” value stood at 1.5 Area %. Also, in series [1] (four weeks at 60° C./ambient RH, 60° C./75% RH and 80° C./ambient RH), the Degradation after aging entry was “no significant degradation”. Further, the “Change in crystal form by powder X-ray diffraction” value in series [1] (two-week stability samples) is given as “no change in crystal form”. This compound also gave a solubility in series [2] of 5 mg/mL. Moreover, the “Water absorbed (moisture sorption)” value in series [3] is recorded as “less than 0.5%”.
As for `CCN(CC)CCNC(=O)c1c(C)[nH]c(/C=C2\C(=O)Nc3ccc(F)cc32)c1C` [Crystal Form II, L-malic acid salt of N-[2-(diethylamino)ethyl]-5-[(5-fluoro-1,2-dihydro-2-oxo-3H-indol-3-ylidene)methyl]-2,4-dimethyl-1H-pyrrole-3-carboxamide], in series [3] (80% relative humidity), the “Water absorbed upon exposure to humidity” value was “at least 5 % by weight”. In addition, in series [3], the “Water absorbed (moisture sorption)” value is given as “over 15%”.
